Measurements taken from patent US20150044702A1, “MEANS AND METHODS FOR ASSESSING DISORDERS RELATED TO IMPAIRED IRON […] ENERGY METABOLISM” (BASF SE, priority 2012, published 2015).
Marks after values point to notes of the source that are not given here.

Assay: 28-day rat study, plasma metabolite profiling: markers for Energy metabolism decreased
Assay type: in vivo
Conditions: for 3-Hydroxybutyrate, treatment ratio versus control / Citrate, treatment ratio versus control / Pyruvate, treatment ratio versus control / Succinate, treatment ratio versus control: male rats, plasma; for capability of inducing impaired energy metabolism: statement in words
Source text: Drinking water was also offered ad libitum.
The samples were centrifuged for generation of plasma.

COCCO [2-Methoxyethanol]
3-Hydroxybutyrate, treatment ratio versus control (day 7): 0.45* | Citrate, treatment ratio versus control (day 7): 0.7* | Pyruvate, treatment ratio versus control (day 7): 0.63* | Succinate, treatment ratio versus control (day 7): 0.91 | 3-Hydroxybutyrate, treatment ratio versus control (day 14): 0.24* | Citrate, treatment ratio versus control (day 14): 0.39* | Pyruvate, treatment ratio versus control (day 14): 0.66* | Succinate, treatment ratio versus control (day 14): 0.99 | capability of inducing impaired energy metabolism: capable of inducing impaired energy metabolism

NC(=O)c1ccc(N)nc1 [6-Aminonicotinamide i.p., 6-Aminopyridine-3-carboxamide]
3-Hydroxybutyrate, treatment ratio versus control (day 7): 0.31* | Citrate, treatment ratio versus control (day 7): 0.62* | Pyruvate, treatment ratio versus control (day 7): 0.31* | Succinate, treatment ratio versus control (day 7): 0.92* | capability of inducing impaired energy metabolism: capable of inducing impaired energy metabolism
